Reference: patent US11174240B2, “Crystalline solid compound of 3-phenyl-4-propyl-1-(pyridin-2-yl)-1H-pyrazol-5-ol hydrochloride” (Aptabio Therapeutics Inc., priority 2017, dated 2021)

What was measured:
Assay type in all cases: physicochemical
[1] = Hygroscopicity test (Karl-Fischer water content under accelerated storage); details: for Water content (%) 1 day: 1 day at 40° C. / 75% relative humidity; for Water content (%) 1 day / Water content (%) 3 days / Water content (%) 7 days: Petri dish without sealing; for Water content (%) 3 days: 3 days at 40° C. / 75% relative humidity; for Water content (%) 7 days: 7 days at 40° C. / 75% relative humidity; for Water content (%) Initial: before storage at 40° C. / 75% relative humidity
Method: (§1) Hygroscopicity comparison experiments were conducted on each of the crystalline free base compound (Example 1), the crystalline hydrochloride compound (Example 2), the non-crystalline free base compound (Comparative Example 1), the non-crystalline hydrochloride compound (Comparative Example 2) and various crystalline acid addition compounds (Comparative Example 3).
The test compounds were exposed in a Petri dish under accelerated storage conditions at a temperature of 40° C. and a relative humidity of 75% for 7 days without sealing. The water content of each test compound was measured using a Karl-Fischer moisture meter. Table 2 summarizes the water content (%) of each test compound measured during the storage period.

[2] = Stability comparison test (long-term storage, HPLC of decomposition product of Formula 3 and total impurities); details: for Concentration of decomposition product of Formula 3 (%) 6 months / Total impurity concentration (%) 6 months: 6 months at 25° C. / 60% relative humidity
Method: as §1, with “Stability” for “Hygroscopicity”
The test compound was stored in a chamber for stability measurement under long-term storage conditions at a temperature of 25° C. and a relative humidity of 60% for 6 months. For storage, each test compound was placed in a double polyethylene bag, and the polyethylene bag was filled with a silica gel pouch and was then placed in a small paper box (fiber drum).
The following Table 3 summarizes the results of the measurement of the concentration of the degradation product of Formula 3 and the total impurity concentration by HPLC analysis after storage under long-term storage conditions for 6 months.
[Analytical Conditions of Liquid Chromatography (HPLC)]
Column temperature: 35° C.
Detector: UV Detector (246 nm)
Gradient condition of mobile phase: […]

[3] = Evaluation of polymorphic transition (PXRD and DSC after storage); details: for DSC endothermic temperature 4 weeks: 4 weeks at 40° C. / 75% relative humidity in polyethylene bag; for DSC endothermic temperature Initial: initial state; for Comparison and determination results (polymorphic transition): initial vs 4 weeks at 40° C. / 75% relative humidity, PXRD and DSC
Method: In order to determine whether or not the polymorphic transition phenomenon occurs under the storage conditions in the crystalline free base compound (Example 1) and the crystalline hydrochloride compound (Example 2), the results of PXRD analysis in the initial state and the possibility of polymorphic transition over time were examined.
Specifically, the test compound was stored in a polyethylene bag in a chamber for stability measurement at a temperature of 40° C. and a relative humidity of 75% for 4 weeks. Also, PXRD and DSC analysis results, measured at the initial state and after 4 weeks, were compared.

| Compound | Water content (%) 1 day [1] | Water content (%) 3 days [1] | Water content (%) 7 days [1] | Water content (%) Initial [1] | Concentration of decomposition product of Formula 3 (%) 6 months [2] | Total impurity concentration (%) 6 months [2] | Concentration of decomposition product of Formula 3 (%) Initial [2] | Total impurity concentration (%) Initial [2] | Water content (%) 1 day ([1]; hydrochloride) | Water content (%) 3 days ([1]; hydrochloride) | Water content (%) 7 days ([1]; hydrochloride) | Water content (%) Initial ([1]; hydrochloride) | Concentration of decomposition product of Formula 3 (%) 6 months ([2]; hydrochloride) | Total impurity concentration (%) 6 months ([2]; hydrochloride) | Concentration of decomposition product of Formula 3 (%) Initial ([2]; hydrochloride) | Total impurity concentration (%) Initial ([2]; hydrochloride) | DSC endothermic temperature 4 weeks [3] | DSC endothermic temperature Initial [3] | Comparison and determination results (polymorphic transition) [3] | Comparison and determination results (polymorphic transition) ([3]; hydrochloride) |
| --- | --- | --- | --- | --- | --- | --- | --- | --- | --- | --- | --- | --- | --- | --- | --- | --- | --- | --- | --- | --- |
| CCCc1c(-c2ccccc2)nn(-c2ccccn2)c1O [Comparative Example 1, 3-phenyl-4-propyl-1-(pyridin-2-yl)-1H-pyrazol-5-ol] | 1.30% | 2.27% | 2.95% | 0.33% | 0.65% | 7.58% | 0.06% | 0.26% |  |  |  |  |  |  |  |  |  |  |  |  |
| CCCc1c(-c2ccccc2)nn(-c2ccccn2)c1O.Cl [Comparative Example 2, 3-phenyl-4-propyl-1-(pyridin-2-yl)-1H-pyrazol-5-ol hydrochloride] |  |  |  |  |  |  |  |  | 1.98% | 3.54% | 7.52% | 0.31% | 0.92% | 5.87% | 0.05% | 0.35% |  |  |  |  |
| CCCc1c(-c2ccccc2)nn(-c2ccccn2)c1O [Example 1, 3-phenyl-4-propyl-1-(pyridin-2-yl)-1H-pyrazol-5-ol] | 0.29% | 0.32% | 0.34% | 0.26% | 0.09% | 0.47% | 0.05% | 0.32% |  |  |  |  |  |  |  |  | 72.8 °C | 73.54 °C | no polymorphic transition occurred |  |
| CCCc1c(-c2ccccc2)nn(-c2ccccn2)c1O.Cl [Example 2, 3-phenyl-4-propyl-1-(pyridin-2-yl)-1H-pyrazol-5-ol hydrochloride] |  |  |  |  |  |  |  |  | 0.31% | 0.37% | 0.39% | 0.25% | 0.08% | 0.45% | 0.03% | 0.28% | 133.4 °C | 134.25 °C |  | no polymorphic transition occurred |
| CCCc1c(-c2ccccc2)nn(-c2ccccn2)c1O [Hemi-1,5-naphthalene disulfonate, 3-phenyl-4-propyl-1-(pyridin-2-yl)-1H-pyrazol-5-ol] | 0.12% | 0.13% | 0.15% | 0.12% | 0.35% | 1.24% | 0.08% | 0.52% |  |  |  |  |  |  |  |  |  |  |  |  |
| CCCc1c(-c2ccccc2)nn(-c2ccccn2)c1O [L-malate, 3-phenyl-4-propyl-1-(pyridin-2-yl)-1H-pyrazol-5-ol] | 1.58% | 1.75% | 2.80% | 0.45% | 0.78% | 3.27% | 0.12% | 0.58% |  |  |  |  |  |  |  |  |  |  |  |  |
| CCCc1c(-c2ccccc2)nn(-c2ccccn2)c1O [L-tartrate, 3-phenyl-4-propyl-1-(pyridin-2-yl)-1H-pyrazol-5-ol] | 0.34% | 0.34% | 0.38% | 0.33% | 0.54% | 1.85% | 0.10% | 0.40% |  |  |  |  |  |  |  |  |  |  |  |  |
| CCCc1c(-c2ccccc2)nn(-c2ccccn2)c1O [Succinate, 3-phenyl-4-propyl-1-(pyridin-2-yl)-1H-pyrazol-5-ol] | 0.42% | 0.44% | 0.48% | 0.37% | 0.38% | 1.65% | 0.09% | 0.48% |  |  |  |  |  |  |  |  |  |  |  |  |
